Experimental data: ChEMBL document CHEMBL4007503, “Easy and rapid preparation of benzoylhydrazides and their diazene derivatives as inhibitors of 15-lipoxygenase” (Bioorg Med Chem Lett, 2017)
pIC50, pKi: −log10 of the molar value. The source made the active and inactive calls. The rule behind the calls is not given here.

Key:
Glycine max [1] = experiment: Inhibition of soybean 15-LOX assessed as Vmax for substrate using linoleic acid as substrate by Lineweaver-Burk plot analysis
Glycine max [2] = experiment: Inhibition of soybean 15-LOX at 10 uM using linoleic acid as substrate relative to control
[3] = Competitive inhibition of soybean 15-LOX using linoleic acid as substrate by Lineweaver-Burk plot analysis; set-up: species or system Glycine max
Glycine max [4] = experiment: Inhibition of soybean 15-LOX assessed as Km for substrate using linoleic acid as substrate by Lineweaver-Burk plot analysis
[5] = Inhibition of soybean 15-LOX using linoleic acid as substrate; set-up: species or system Glycine max
[6] = Antioxidant activity assessed as ferric ion reducing activity by measuring Fe2+ levels using Fe3+-TPTZ after 40 mins by FRAP assay; type: functional
[7] = Antioxidant activity assessed as cupric ion reducing activity after 30 mins by CUPRAC assay; type: functional
[8] = biological target: T1, Polyunsaturated fatty acid lipoxygenase ALOX15 (Homo sapiens, UniProt P16050); experiment: Inhibition of thapsigargin-stimulated 15-LOX in human primary polymorphonuclear leukocytes using arachidonic acid as substrate preincubated for 5 mins followed by thapsigargin stimulation for 5 mins by RP-HPLC method
T1 sequence (P16050 whole entry): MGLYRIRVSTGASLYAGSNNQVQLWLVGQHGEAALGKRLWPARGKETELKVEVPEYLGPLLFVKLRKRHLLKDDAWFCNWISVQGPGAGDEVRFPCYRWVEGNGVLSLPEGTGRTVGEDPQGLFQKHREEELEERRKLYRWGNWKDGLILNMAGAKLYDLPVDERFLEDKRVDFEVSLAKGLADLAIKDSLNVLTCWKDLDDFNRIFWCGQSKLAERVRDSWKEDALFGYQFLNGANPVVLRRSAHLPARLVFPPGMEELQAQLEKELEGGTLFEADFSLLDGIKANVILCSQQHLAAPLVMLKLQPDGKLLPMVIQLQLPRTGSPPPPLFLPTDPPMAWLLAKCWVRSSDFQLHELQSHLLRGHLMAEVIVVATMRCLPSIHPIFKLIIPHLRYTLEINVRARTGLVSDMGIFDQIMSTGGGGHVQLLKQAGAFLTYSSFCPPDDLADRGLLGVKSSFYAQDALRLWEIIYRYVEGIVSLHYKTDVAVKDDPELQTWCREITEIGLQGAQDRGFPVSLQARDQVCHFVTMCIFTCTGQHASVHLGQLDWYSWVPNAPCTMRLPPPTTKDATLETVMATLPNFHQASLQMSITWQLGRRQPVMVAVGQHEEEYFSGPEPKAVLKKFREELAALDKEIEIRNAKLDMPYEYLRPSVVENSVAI

[9] = biological target: T1, Polyunsaturated fatty acid lipoxygenase ALOX15; experiment: Inhibition of 15-LOX in human primary polymorphonuclear leukocytes
Glycine max [10] = experiment: Potency index, ratio of 4-methyl-2-(4-methylpiperazinyl)-pyrimido[4,5b]benzothiazine IC50 to compound IC50 for soybean 15-LOX

## N#Cc1ccc(/N=N/C(=O)c2ccccc2)cc1
Glycine max [1]
  Vmax: 0.57 µM/s
Glycine max [2]
  inhibition: 80%
[3]
  pKi: 5.41
Glycine max [4]
  Km: 140 µM
[5]
  pIC50: 5.01

## O=C(NNc1ccccc1)c1ccccc1
[6]
  Activity: Active
[7]
  Activity: Active
Glycine max [2]
  inhibition: 33%

## N#Cc1ccc(NNC(=O)c2ccccc2)cc1
Glycine max [2]
  inhibition: 9%

## COc1ccc(/N=N/C(=O)c2ccccc2)cc1
Glycine max [2]
  inhibition: 19%

## O=C(/C=C/c1ccc(O)c(O)c1)OCCc1ccccc1 [CAFFEIC ACID PHENETHYL ESTER]
[8]
  pIC50: 6.89

## O=C(NNc1ccc([N+](=O)[O-])cc1)c1ccccc1
Glycine max [2]
  inhibition: 17%

## CC(c1cc2ccccc2s1)N(O)C(N)=O (stereo not given) [ZILEUTON]
[9]
  pIC50: 6.40

## NS(=O)(=O)c1ccc(NNC(=O)c2ccccc2)cc1
Glycine max [2]
  inhibition: 10%

## O=C(/N=N/c1ccccc1)c1ccccc1
Glycine max [2]
  inhibition: 87%
[5]
  pIC50: 5.16

## Cc1ccc(NNC(=O)c2ccccc2)cc1
[6]
  Activity: Active
Glycine max [1]
  Vmax: 0.46 µM/s
Glycine max [2]
  inhibition: 93%
Glycine max [10]
  Ratio IC50: 3.4
[3]
  pKi: 6.09
Glycine max [4]
  Km: 89.6 µM
[5]
  pIC50: 5.27

## O=C(NNc1ccc(Br)cc1)c1ccccc1
[6]
  Activity: Active
Glycine max [2]
  inhibition: 28%

## O=C(/N=N/c1ccc([N+](=O)[O-])cc1)c1ccccc1
Glycine max [2]
  inhibition: 34%

## COc1ccc(NNC(=O)c2ccccc2)cc1
[6]
  Activity: Active
Glycine max [2]
  inhibition: 73%

## O=C(/N=N/c1ccc(Br)cc1)c1ccccc1
Glycine max [2]
  inhibition: 44%

## Cc1ccc(/N=N/C(=O)c2ccccc2)cc1
Glycine max [2]
  inhibition: 44%
